Assay results published in publication PMC6976569, “Structural basis of subtype-selective competitive antagonism for GluN2C/2D-containing NMDA receptors” (Nature Communications, 2020).
Where “and” joins values, the source holds several entries; their conditions need not be identical. Equal values may be shown once.

How the values were obtained:
Type in all cases: cell-based
GluN1-4a/GluN2B NMDARs [1] = target: T1, GluN1-4a/GluN2B NMDARs (Rattus norvegicus, UniProt P35439+Q00960); test: TEVC electrophysiology on Xenopus laevis oocytes expressing GluN1-4a/GluN2B
T1 construct: expressed in transfected cells; host or cells: Xenopus laevis oocytes injected with cRNA
From the text: (§1) The chemical definition of UBP791 used in this study is a cis-racemic mixture of (2S,3R)- and (2R,3S)-isomers.
(§2) Plasmids (pSP or pCI_NEO) harboring rat GluN1 or GluN2 full-length subunits were linearized by restriction digestion and transcribed according to the manufacturer’s instructions (mMESSAGE mMachine SP6 or T7 kit, ThermoFisher Scientific). Recombinant rat GluN1-4a and GluN2 were expressed by co-injecting cRNA at a 1:2 (w/w) ratio into defolliculated X. laevis oocytes (amounts varied from 0.05–25 ng per oocyte). Two-electrode voltage-clamp recordings were performed 1–3 days after injection using agarose-tipped microelectrodes (0.4–1.2 MΩ) filled with 3 M KCl at a holding potential of −60 mV. The bath solution contained 5 mM HEPES, 100 mM NaCl, 0.3 mM BaCl2, 10 mM Tricine, at pH 7.4 (adjusted with KOH). […] For the statistical evaluation, we implemented pairwise F-tests to test variances, and then performed the Student t test with equal or unequal variances as determined previously, and accounted for multiple testing with the Bonferroni correction.

GluN1-4a/GluN2B NMDARs [2] = target: T2, GluN1-4a/GluN2B NMDARs (Rattus norvegicus, UniProt Q00960); test: as above; details: for fold difference of Ki vs. 2D (GluN2B): Ki GluN2B relative to Ki GluN2D (WT)
T2 construct: expressed in transfected cells; host or cells: Xenopus laevis oocytes injected with cRNA
T2 sequence (Q00960 27-1482, other chains not shown): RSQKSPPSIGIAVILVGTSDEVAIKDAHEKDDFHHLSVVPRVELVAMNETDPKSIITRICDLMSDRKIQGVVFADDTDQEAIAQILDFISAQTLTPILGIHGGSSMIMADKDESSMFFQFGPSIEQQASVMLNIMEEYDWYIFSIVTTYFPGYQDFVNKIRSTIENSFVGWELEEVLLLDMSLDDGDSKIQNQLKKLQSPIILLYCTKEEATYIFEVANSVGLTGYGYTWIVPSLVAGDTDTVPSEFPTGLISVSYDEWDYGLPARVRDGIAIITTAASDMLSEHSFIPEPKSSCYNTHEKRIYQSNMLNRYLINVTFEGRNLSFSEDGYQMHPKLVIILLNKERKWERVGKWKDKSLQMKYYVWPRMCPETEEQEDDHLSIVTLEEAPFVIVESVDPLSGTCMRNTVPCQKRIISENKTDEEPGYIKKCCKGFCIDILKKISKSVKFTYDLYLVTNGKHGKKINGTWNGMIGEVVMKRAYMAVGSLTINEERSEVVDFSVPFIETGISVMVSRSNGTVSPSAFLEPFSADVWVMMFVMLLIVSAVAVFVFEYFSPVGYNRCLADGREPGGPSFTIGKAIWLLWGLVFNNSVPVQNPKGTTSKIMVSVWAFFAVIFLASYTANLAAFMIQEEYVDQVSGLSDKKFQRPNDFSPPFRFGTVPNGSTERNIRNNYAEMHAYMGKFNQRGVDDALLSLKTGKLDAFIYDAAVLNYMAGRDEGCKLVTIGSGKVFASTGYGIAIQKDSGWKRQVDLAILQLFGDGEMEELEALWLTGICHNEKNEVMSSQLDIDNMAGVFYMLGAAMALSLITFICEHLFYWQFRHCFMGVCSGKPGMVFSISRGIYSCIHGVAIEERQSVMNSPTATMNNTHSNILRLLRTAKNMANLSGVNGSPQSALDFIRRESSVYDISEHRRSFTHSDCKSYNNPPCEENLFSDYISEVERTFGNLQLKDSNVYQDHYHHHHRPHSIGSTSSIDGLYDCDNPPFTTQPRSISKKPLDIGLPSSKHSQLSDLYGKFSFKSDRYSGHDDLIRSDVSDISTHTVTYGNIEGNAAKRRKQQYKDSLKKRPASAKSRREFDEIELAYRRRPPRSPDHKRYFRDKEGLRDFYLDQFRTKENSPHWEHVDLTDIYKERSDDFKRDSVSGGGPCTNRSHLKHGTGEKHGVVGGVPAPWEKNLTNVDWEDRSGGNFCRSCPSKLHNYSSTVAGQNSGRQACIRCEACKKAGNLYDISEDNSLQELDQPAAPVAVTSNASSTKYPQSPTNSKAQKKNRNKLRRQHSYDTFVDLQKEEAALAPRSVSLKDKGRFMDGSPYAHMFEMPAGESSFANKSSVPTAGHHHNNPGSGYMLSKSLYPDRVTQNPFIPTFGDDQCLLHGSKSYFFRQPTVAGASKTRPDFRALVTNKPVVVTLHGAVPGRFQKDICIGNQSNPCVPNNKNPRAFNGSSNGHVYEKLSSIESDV
From the text: as §1, §2

GluN1-4a/GluN2D NMDARs [3] = target: T3, GluN1-4a/GluN2D NMDARs (Rattus norvegicus, UniProt P35439+Q62645); test: TEVC electrophysiology on Xenopus laevis oocytes expressing GluN1-4a/GluN2D; details: for Ki: 100 μM glycine, 1 or 3 μM L-glutamate
T3 construct: expressed in transfected cells; host or cells: Xenopus laevis oocytes injected with cRNA
T3 sequence (Q62645 28-1323, other chains not shown): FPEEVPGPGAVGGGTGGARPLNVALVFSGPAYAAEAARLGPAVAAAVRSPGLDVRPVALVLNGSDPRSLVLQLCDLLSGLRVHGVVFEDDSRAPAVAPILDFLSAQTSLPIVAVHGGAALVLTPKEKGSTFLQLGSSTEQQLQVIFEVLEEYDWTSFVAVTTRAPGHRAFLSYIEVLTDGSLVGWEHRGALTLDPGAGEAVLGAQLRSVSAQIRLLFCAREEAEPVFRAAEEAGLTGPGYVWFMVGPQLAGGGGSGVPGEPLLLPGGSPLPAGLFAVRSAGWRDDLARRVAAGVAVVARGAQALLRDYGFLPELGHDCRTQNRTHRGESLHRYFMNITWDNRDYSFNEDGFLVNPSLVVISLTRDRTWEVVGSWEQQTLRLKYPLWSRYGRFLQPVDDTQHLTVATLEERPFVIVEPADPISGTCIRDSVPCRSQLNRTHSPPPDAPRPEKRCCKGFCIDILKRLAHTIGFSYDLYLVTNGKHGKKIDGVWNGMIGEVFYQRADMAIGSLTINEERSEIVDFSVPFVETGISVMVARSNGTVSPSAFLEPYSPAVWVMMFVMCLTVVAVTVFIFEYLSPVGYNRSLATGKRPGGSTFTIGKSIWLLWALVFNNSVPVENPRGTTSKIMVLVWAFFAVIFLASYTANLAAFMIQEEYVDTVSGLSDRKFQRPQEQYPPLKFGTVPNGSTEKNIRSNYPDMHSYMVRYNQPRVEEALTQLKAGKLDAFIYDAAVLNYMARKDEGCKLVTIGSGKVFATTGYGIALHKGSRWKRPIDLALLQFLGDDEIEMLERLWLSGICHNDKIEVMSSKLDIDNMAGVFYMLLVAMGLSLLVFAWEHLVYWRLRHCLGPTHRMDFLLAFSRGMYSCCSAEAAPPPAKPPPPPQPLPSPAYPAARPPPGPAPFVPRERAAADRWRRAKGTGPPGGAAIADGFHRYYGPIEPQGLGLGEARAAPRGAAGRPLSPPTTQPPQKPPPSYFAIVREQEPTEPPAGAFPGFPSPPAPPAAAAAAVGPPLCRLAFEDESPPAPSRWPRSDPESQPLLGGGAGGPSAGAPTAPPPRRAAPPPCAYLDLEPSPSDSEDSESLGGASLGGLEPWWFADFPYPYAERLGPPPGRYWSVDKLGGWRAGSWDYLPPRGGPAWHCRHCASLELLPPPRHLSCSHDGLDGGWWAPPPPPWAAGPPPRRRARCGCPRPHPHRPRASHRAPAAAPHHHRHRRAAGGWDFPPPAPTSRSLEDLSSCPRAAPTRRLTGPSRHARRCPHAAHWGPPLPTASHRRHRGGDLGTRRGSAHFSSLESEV
From the text: as §1, §2

GluN1-4a/GluN2D NMDARs [4] = target: T4, GluN1-4a/GluN2D NMDARs (Rattus norvegicus, UniProt Q62645); test: as above
T4 construct: expressed in transfected cells; host or cells: Xenopus laevis oocytes injected with cRNA
T4 sequence (Q62645 28-1323, other chains not shown): as above
From the text: as §1, §2

GluA1 = GluA1 (Homo sapiens, UniProt P42261); test: Glutamate-stimulated Ca2+-influx fluorescence assay in HEK293 cells, GluA1; details: for IC50: HEK293 cells, glutamate-stimulated Ca2+-influx
Chain of GluA1 (P42261 19-906): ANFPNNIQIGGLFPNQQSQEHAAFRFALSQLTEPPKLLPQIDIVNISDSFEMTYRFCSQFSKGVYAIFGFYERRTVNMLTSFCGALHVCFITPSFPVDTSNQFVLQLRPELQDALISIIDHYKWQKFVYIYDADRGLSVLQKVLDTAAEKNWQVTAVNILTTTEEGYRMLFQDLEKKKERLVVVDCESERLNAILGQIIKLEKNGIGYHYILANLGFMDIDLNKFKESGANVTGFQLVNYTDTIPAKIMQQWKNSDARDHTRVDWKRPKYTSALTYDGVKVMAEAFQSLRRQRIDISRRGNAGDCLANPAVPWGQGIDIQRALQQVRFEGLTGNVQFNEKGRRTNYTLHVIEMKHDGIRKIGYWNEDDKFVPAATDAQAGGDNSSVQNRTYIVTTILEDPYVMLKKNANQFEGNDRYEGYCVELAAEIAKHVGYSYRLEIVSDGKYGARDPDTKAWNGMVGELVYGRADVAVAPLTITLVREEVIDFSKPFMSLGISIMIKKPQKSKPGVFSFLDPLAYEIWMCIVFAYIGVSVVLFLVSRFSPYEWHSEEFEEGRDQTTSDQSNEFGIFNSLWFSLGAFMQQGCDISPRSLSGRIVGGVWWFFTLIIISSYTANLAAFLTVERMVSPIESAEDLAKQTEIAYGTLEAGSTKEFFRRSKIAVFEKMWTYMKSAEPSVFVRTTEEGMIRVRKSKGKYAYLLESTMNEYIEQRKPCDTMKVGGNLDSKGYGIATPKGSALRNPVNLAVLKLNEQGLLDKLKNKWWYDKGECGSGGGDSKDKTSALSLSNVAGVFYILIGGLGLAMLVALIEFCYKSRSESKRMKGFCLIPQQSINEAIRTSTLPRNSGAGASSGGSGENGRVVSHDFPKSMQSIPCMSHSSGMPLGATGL
Protocol: (§3) HEK293 cell lines stably expressing homomeric glutamate receptors (GluA1, GluK1 and GluK2) were obtained from Eli Lilly and grown in DMEM (ThermoFisher) supplemented with 10% v/v fetal bovine serum (Sigma), 2 mM Glutamax™ (Gibco), 100 U/mL penicillin, 100 µg streptomycin and 250 ng amphotericin B (Sigma) in 5% CO2 at 37 °C. Cells were passaged using TrypLE (Gibco) as required before confluency and periodically treated with selection antibiotics (GluK1, GluK2 hygromycin B, 200 µg/mL; GluA1 geneticin™, 200 µg/mL).
(§4) Calcium influx fluorescence assay
(§5) 100k cells/well were seeded into a 96-well plate precoated with poly-L-lysine and incubated for 12-16 hours until fully confluent. The cell monolayer was washed twice with 100 µL Hanks Balanced Salt Solution supplemented with 5 mM CaCl2 and 20 mM HEPES (sHBSS), then incubated for 2-4 hours with 100 µL working solution of Ca6 dye (Molecular Devices) supplemented with a desensitization blocker (GluK1, GluK2 0.25 mg/mL concanavalin A, Sigma; GluA1 100 µM cyclothiazide, Sigma). The time resolved fluorescence was recorded in a Flexstation 3 instrument (Molecular Devices). For each individual reading, the initial fluorescence of the well was measured for 20 seconds, after which the desired concentration of […]
(§6) response is measured as the peak change in fluorescence upon addition of agonist. The viability of the cells was confirmed by determination of the concentration-response curve to the L-glutamate agonist and a standard antagonist for each plate. Readings of antagonists used the […]
(§7) Fluorescence traces were performed in […]
(§8) triplicate on each plate and Ki values were determined on a plate-by-plate basis. Separate experiments (n) were performed on different passages of cells. […]

GluK2 = GluK2 (Homo sapiens, UniProt Q13002); test: Glutamate-stimulated Ca2+-influx fluorescence assay in HEK293 cells, GluK2; details: for IC50: HEK293 cells, glutamate-stimulated Ca2+-influx
Chain of GluK2 (Q13002 32-908): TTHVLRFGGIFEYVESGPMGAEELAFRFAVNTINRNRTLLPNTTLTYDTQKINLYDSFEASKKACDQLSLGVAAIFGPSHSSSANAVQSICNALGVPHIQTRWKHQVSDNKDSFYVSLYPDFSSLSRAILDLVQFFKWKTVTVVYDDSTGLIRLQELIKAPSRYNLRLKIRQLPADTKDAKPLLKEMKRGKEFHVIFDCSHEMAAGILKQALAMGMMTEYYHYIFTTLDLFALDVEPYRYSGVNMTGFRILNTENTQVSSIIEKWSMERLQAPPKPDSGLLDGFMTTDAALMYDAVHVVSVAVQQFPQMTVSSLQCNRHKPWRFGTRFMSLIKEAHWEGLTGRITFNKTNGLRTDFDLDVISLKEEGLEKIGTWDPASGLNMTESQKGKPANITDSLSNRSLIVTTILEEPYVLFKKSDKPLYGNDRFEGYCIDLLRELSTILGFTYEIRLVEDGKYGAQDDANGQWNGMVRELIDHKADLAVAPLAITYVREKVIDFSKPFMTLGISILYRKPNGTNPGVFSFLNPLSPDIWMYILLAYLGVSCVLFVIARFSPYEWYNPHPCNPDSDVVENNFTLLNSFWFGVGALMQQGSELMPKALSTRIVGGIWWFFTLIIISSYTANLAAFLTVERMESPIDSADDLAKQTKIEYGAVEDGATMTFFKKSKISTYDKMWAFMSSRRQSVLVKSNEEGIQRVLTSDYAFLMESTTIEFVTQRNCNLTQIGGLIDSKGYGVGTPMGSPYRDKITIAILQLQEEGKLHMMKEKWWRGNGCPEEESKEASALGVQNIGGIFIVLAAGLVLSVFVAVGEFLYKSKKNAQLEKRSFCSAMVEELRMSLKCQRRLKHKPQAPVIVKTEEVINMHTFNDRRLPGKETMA
Protocol: as §3, §4, §5, §6, §7, §8

human GluK1 = human GluK1 (Homo sapiens, UniProt P39086); test: Glutamate-stimulated Ca2+-influx fluorescence assay in HEK293 cells, GluK1
Protocol: Supplementary Figure 5. Effect of antagonist compounds on GluK1.
Averaged dose-response curves (average ± standard error of the mean) for inhibition with a […]
glutamate-stimulated Ca2+-influx assay from 3 or 4 measurements (n). IC50, Ki, and Hill coefficient nH (mean ± standard error of the mean) calculated with the Cheng-Prusoff equation were determined per measurement and are as shown. […]
HEK293 cell lines stably expressing homomeric glutamate receptors (GluA1, GluK1 and GluK2) were obtained from Eli Lilly and grown in DMEM (ThermoFisher) supplemented with 10% v/v fetal bovine serum (Sigma), 2 mM Glutamax™ (Gibco), 100 U/mL penicillin, 100 µg streptomycin and 250 ng amphotericin B (Sigma) in 5% CO2 at 37 °C. […]
as §4
100k cells/well were seeded into a 96-well plate precoated with poly-L-lysine and incubated for 12-16 hours until fully confluent. […] The time resolved fluorescence was recorded in a Flexstation 3 instrument (Molecular Devices). For each individual reading, the initial fluorescence of the well was measured for 20 seconds, after which the desired concentration of […]
response is measured as the peak change in fluorescence upon addition of agonist. […] Readings of antagonists used the […]
as §7
triplicate on each plate and Ki values were determined on a plate-by-plate basis. […]

GluN1-4a/GluN2C NMDARs = target: T5, GluN1-4a/GluN2C NMDARs (Rattus norvegicus, UniProt Q00961); test: TEVC electrophysiology on Xenopus laevis oocytes expressing GluN1-4a/GluN2C; details: Ki GluN2C relative to Ki GluN2D (WT)
T5 construct: expressed in transfected cells; host or cells: Xenopus laevis oocytes injected with cRNA
From the text: as §1, §2

[5] = normalized response at 30 µM compound
[6] = normalized response at 100 µM compound

Structure (SMILES) | Ki (GluN1-4a/GluN2B NMDARs [1]) [nM] | fold difference of Ki vs. 2D (GluN2B) (GluN1-4a/GluN2B NMDARs [2]) | GluN2C/2D-selectivity over GluN2B (GluN1-4a/GluN2B NMDARs [2]; ratio of Ki values) [fold] | IC50 (GluN1-4a/GluN2D NMDARs [3]) [nM] | Ki (GluN1-4a/GluN2D NMDARs [3]; Cheng–Prusoff from IC50 and L-glutamate EC50) [nM] | Ki (GluN1-4a/GluN2D NMDARs [3]; Cheng–Prusoff) | Hill coefficient (nH) (GluN1-4a/GluN2D NMDARs [4]; inhibition dose-response, 100 μM glycine, 1 or 3 μM L-glutamate) | IC50 (GluA1) [nM] | Mean Response (GluA1; [5]) [%] | Mean Response (GluA1; [6]) [%] | IC50 (GluK2) [nM] | Mean Response (GluK2; [5]) [%] | Mean Response (GluK2; [6]) [%] | Ki (human GluK1) [nM] | selectivity for GluN2C over GluN2B (GluN1-4a/GluN2B NMDARs [2]; ratio of Ki values) [fold] | fold difference of Ki vs. 2D (GluN2C) (GluN1-4a/GluN2C NMDARs) | fold higher affinity on GluN2D compared to UBP145 and UBP161 (GluN1-4a/GluN2D NMDARs [4]; peer review file, authors' response) [fold]
O=C(O)CCc1ccc2c(ccc3cc(C(=O)N4CCN[C@@H](C(=O)O)[C@H]4C(=O)O)ccc32)c1 (relative stereo) [UBP791, (2S*,3R*)-1-(7-(2-carboxyethyl)phenanthrene-2-carbonyl)piperazine-2,3-dicarboxylic acid] | 1380 ± 360 | ~ 16 fold | 16 | 560 ± 10 | 90 ± 20 | 80 to 90 nM | 1.40 ± 0.02 | > 100000 | 94.1 | 86.0 | > 100000 | 96.1 | 97.8 | ~100000 | – | – | –
O=C(O)C=Cc1ccc2c(ccc3cc(C(=O)N4CCN[C@@H](C(=O)O)[C@H]4C(=O)O)ccc32)c1 (relative stereo) [UBP1700, (2S*,3R*)-1-(7-(2-carboxyvinyl)phenanthrene-2-carbonyl)piperazine-2,3-dicarboxylic acid] | 350 ± 50 | ~ 52 fold and 52 fold | – | – | – | 7 nM and 7 to 9 nM | – | > 100000 | 105.1 | 101.8 | > 100000 | 76.5 | 90.4 | ~32000 | 40 | ~ 1.3 fold | > 140
